The nature of assay [1]: DPPH free radical scavenging assay. The class given is biochemical. Here is the method:
Radical scavenging activity was evaluated using DPPH according to the method described by Morel et al. with some modifications (Morel, Landreau, Nguyen, Derbre, Grellier, Pape, et al., 2012). Tested extracts and standards were diluted in absolute ethanol at different concentrations. Ethanol was used as blank, and 10, 25, 50 and 75 μM Trolox were used as calibration solutions. Tested compounds or standard solutions (100 μL) were placed in 96-well plates in triplicate for each tested concentration. Absolute ethanol was added (75 μL). The reaction was initiated by adding 25 μL of freshly prepared DPPH solution (1 mM) to obtain a final volume of 200 μL/well. After 30 min in the dark at room temperature, absorbance was determined at 550 nm with a UVMAX Molecular Devices microtiter plate reader (MDS Inc., Toronto, Canada). Results were expressed as the effective concentration at which 50% of DPPH radicals were scavenged (EC50 in μg/mL). The results are the mean±standard deviation (SD) of three independent experiments (three wells per concentration for each experiment).
Background: DPPH is a stable violet radical that fades when it is reduced.

In assay [2] the test system is human myoblasts. As to the kind of experiment: H2O2-induced cell death in human myoblasts (Muse Count and Viability Kit). Type of assay: cell-based. Here is the method:
The quadriceps muscle biopsy was from one healthy adult (AFM-BTR “Banque de tissus pour la recherche”). Myoblasts were purified from the muscle biopsy and were cultured on collagen-coated dishes in DMEM/F12 medium with 10% foetal bovine serum (FBS), 0.1% Ultroser G and 1 ng/ml of human basic fibroblast growth factor (proliferation medium), as previously described (Kitzmann, Bonnieu, Duret, Vernus, Barro, Laoudj-Chenivesse, et al., 2006). For cell differentiation, confluent cells were cultured in DMEM with 4% FBS for 3-5 days (differentiation medium).
Myoblasts: Myoblasts were seeded in 35 mm collagen-coated dishes, cultured in proliferation medium, pre-incubated or not with the tested compounds for 24 h and then incubated or not with a lethal concentration of hydrogen peroxide (H2O2), a strong pro-oxidant/pro-apoptotic compound, for 24 h. […] Dead myoblasts were identified by staining with the Muse® Count and Viability Kit, and ROS was quantified with the Muse® Oxidative Stress Kit, followed by analysis with a Fluorescence Activated Cell Sorting (FACS) Muse apparatus (Millipore, France). […] As myotubes are too big for FACS analysis, H2O2 effect was determined by quantifying lactate dehydrogenase (LDH) activity, which is increased in the culture medium during tissue damage, using the LDH Cytotoxic Kit (ThermoFisher, France). […]

In assay [3] the test system is human myoblasts. In words: ROS quantification in myoblasts (Muse Oxidative Stress Kit, FACS). Type of assay: cell-based. Here is the method: (§1) Myoblasts: Myoblasts were seeded in 35 mm collagen-coated dishes, cultured in proliferation medium, pre-incubated or not with the tested compounds for 24 h and then incubated or not with a lethal concentration of hydrogen peroxide (H2O2), a strong pro-oxidant/pro-apoptotic compound, for 24 h. The optimal H2O2 concentration was the concentration required to kill between 30% and 50% of all cells and was established before each experiment. In general, myoblasts were incubated with 120 μM H2O2. Dead myoblasts were identified by staining with the Muse® Count and Viability Kit, and ROS was quantified with the Muse® Oxidative Stress Kit, followed by analysis with a Fluorescence Activated Cell Sorting (FACS) Muse apparatus (Millipore, France). Myotubes: Myoblasts were seeded in 35 mm collagen-coated dishes, cultured in proliferation medium until confluence, and then switched to differentiation medium for 4 days. At day 2, cells were incubated with TX for 24 h prior to incubation with H2O2 for 24 h. […] As myotubes are too big for FACS analysis, H2O2 effect was determined by quantifying lactate dehydrogenase (LDH) activity, which is increased in the culture medium during tissue damage, using the LDH Cytotoxic Kit (ThermoFisher, France). In parallel, myotube cultures were loaded with a ROS-fluorescent probe (CellRox) followed by fluorescence quantification using a TECAN spectrophotometer.

In a further assay the test system is γH2AX. In words: Western blot of phosphorylated γH2AX in myoblasts. Type of assay: cell-based, human. Here is the method: Myoblasts were seeded in 35 mm collagen-coated dishes, cultured in proliferation medium, pre-incubated or not with TX for 24 h and then incubated or not with 80 μM H2O2 for 24 h. Protein extracts were separated by SDS-PAGE gel electrophoresis and transferred to nitrocellulose membranes, blocked at room temperature with Odyssey blocking buffer (Eurobio, France) and probed with the rabbit polyclonal anti-Histone H1.4 (Sigma-Aldrich; 1/5000) and rabbit polyclonal anti-gamma H2AX (Cell signalling; 1/3000) antibodies followed by IRDye® 680RD and IRDye® 800RD secondary antibodies (Eurobio, France). Fluorescence was quantified with the Odyssey software. Data were normalized to […] expression.
A general note: Immunoblotting shows a protein as a band on a membrane.

The test system of a further assay is CHOP gene. In words: RT-qPCR of CHOP gene expression in myoblasts. Type of assay: cell-based, human. Here is the method:
Myoblasts were seeded in 35 mm collagen-coated dishes, cultured in proliferation medium, pre-incubated or not with TX for 24 h, and then incubated or not with a sub-lethal concentration of H2O2 (80 μM; to avoid interference with dead cells) for 24 h. Then, total RNA was isolated from muscle cells using the NucleoSpin RNA II Kit (Macherey-Nagel, Hoerdt, France). The RNA concentration of each sample was measured with an Eppendorf BioPhotometer. cDNA was prepared using the Verso cDNA Synthesis Kit (Thermo Scientific, Ilkirch, France).
The expression of the CHOP (target) and RPLPO (control) genes was analysed by quantitative polymerase chain reaction (qPCR) on a LightCycler apparatus (Roche Diagnostics, Meylan, France), as previously described (El Haddad, Notarnicola, Evano, El Khatib, Blaquiere, Bonnieu, et al., 2017), using the following primers: […]
A general note: Quantitative PCR measures a nucleic acid by following its amplification.

For assay [4], the system named is human myotubes. In words: H2O2 toxicity in myotubes by lactate dehydrogenase (LDH) activity. Particulars: TX 0.5 μg/mL 24 h, then H2O2 (550 μM) 24 h, FIG. 4D. Type of assay: cell-based. The procedure: as §1
Assay [5] has as its system human myotubes. As to the kind of experiment: ROS in myotubes (CellRox probe, TECAN). Particulars: TX 0.5 μg/mL 24 h, then H2O2 (550 μM) 24 h, FIG. 4E. Type of assay: cell-based.
Assay [6] deals with Walker carcinosarcoma 256. Particulars: Kupchan 1968; cited from earlier work.
The next assay addresses T1, HIV-1 protease (Human immunodeficiency virus type 1 group M subtype B, UniProt P04585).
T1 construct: HIV-1 protease
Conditions: Ahmed 1999; cited from earlier work.

For another assay, the system named is termites. Conditions: Kusumoto 2009; cited from earlier work.
For another assay, the system named is fungi. Particulars: Kusumoto 2010; Machumi 2010; Bufalo 2016; cited from earlier work.
A further assay deals with protein phosphatase 2C. Particulars: Kusumoto 2014; cited from earlier work.
A further assay relates to Leishmania. Particulars: Naman 2016; Zhang 2012; Machumi 2010; Bufalo 2016; cited from earlier work.
The subject of another assay is Plasmodium. Conditions: Zhang 2012; cited from earlier work.
In the next assay the test system is microbes. Particulars: Zhang 2012; Kuzma 2012; cited from earlier work.
The test system of a further assay is protozoa. Conditions: Mothana 2014; Kuzma 2017; cited from earlier work.
A further assay deals with bacteria. Particulars: Machumi 2010; Bufalo 2016; cited from earlier work.
The next assay deals with acetylcholinesterase (Homo sapiens, UniProt P22303). Conditions: Kuzma 2016; cited from earlier work.
The conditions of assay [7]: Kolak 2009; cited from earlier work.
Assay [8] has as its system MOLT-4, HT-29, and MCF-7 cells. Conditions: Mirzaei 2017; cited from earlier work.
The next assay relates to colon cancer cells. Conditions: isolated in mixture with [9]-shogaol from Rosmarinus officinalis leaves; Borras Linares 2015; cited from earlier work.

“Also recorded” adds a separate entry of the source.

Sequence of acetylcholinesterase (P22303 32-614): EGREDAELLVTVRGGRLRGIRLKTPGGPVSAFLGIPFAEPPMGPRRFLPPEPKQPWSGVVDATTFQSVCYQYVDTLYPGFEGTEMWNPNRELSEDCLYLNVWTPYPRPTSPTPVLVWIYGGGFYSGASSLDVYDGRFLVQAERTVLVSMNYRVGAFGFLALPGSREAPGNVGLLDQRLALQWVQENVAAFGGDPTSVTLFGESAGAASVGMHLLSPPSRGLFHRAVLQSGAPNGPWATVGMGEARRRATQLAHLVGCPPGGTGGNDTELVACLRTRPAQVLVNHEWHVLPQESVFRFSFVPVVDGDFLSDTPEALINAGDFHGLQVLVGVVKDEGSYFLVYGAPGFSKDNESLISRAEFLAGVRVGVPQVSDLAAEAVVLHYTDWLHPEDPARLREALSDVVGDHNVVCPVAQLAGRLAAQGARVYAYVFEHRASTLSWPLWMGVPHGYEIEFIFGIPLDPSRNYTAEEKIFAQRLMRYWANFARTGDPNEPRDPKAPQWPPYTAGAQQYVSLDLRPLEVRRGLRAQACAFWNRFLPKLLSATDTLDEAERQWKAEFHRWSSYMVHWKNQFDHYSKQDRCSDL

As to `O=C(/C=C/c1ccc(O)c(O)c1)O[C@H](Cc1ccc(O)c(O)c1)C(=O)O` [rosmarinic acid], in assay [1], the “DPPH free radical scavenging activity” value is listed as “strong antioxidant capacities”.

For the molecule `CC(C)c1cc2c(c(O)c1O)[C@@]1(C(=O)O)CCCC(C)(C)[C@@H]1CC2` [CA, carnosic acid], the “DPPH free radical scavenging activity” value in [1] is recorded as “strong antioxidant capacities”.

For `CC(C)c1cc2c(c(O)c1O)[C@@]13CCCC(C)(C)[C@@H]1C[C@@H]2OC3=O` [CO, carnosol], the “DPPH free radical scavenging activity” value in assay [1] was “strong antioxidant capacities”.

As for `CC1(C)CC(O)CC(C)(C)N1[O]` [Tempol, reference compound], in the assay on human myoblasts [2] (pre-incubation 24 h prior to lethal H2O2 (120 μM), Tempol 50 μM, RW all tested concentrations, FIG. 1A), the “protection against H2O2-induced cell death” value is given as “protected human myoblasts efficiently”.

Regarding `CC(C)C1=CC2=CC(=O)[C@H]3C(C)(C)CCC[C@]3(C)C2=C(O)C1=O` [taxodione, (4bS,8aS)-4b,5,6,7,8,8a-hexahydro-4-hydroxy-2-isopropyl-4b,8,8-trimethylphenanthrene-3,9-dione], the “antioxidant activity (H2O2-induced cell death) compared with CA and CO” value in the assay with human myoblasts [2] (all tested concentrations, FIG. 3B) is given as “significantly more efficient”. Further, the “level of ROS after H2O2” value in the assay on human myoblasts [3] (TX 0.5 μg/mL 24 h, then H2O2 24 h, FIG. 4A) is given as “reduced H2O2 effects”. In addition, in the assay with human myoblasts [3] (without H2O2), the “level of ROS, TX alone” value is listed as “did not have any effect”. Further, the “level of γH2AX protein after H2O2” value in the assay with γH2AX (TX 0.5 μg/mL 24 h, then 80 μM H2O2 24 h, FIG. 4B) was “reduced H2O2 effects”. The “level of γH2AX protein, TX alone” value in the assay on γH2AX (without H2O2) was “did not have any effect”. Besides, the “level of CHOP mRNA after H2O2” value in the assay on CHOP gene (TX 0.5 μg/mL 24 h, then 80 μM H2O2 24 h, FIG. 4C) was “reduced H2O2 effects”. Also, in the assay with CHOP gene (without H2O2), the “level of CHOP mRNA, TX alone” value is “did not have any effect”. Besides, the “LDH activity after H2O2” value with human myotubes [4] is recorded as “significantly reduced H2O2 effects”. Moreover, the “ROS level (CellRox) after H2O2” value with human myotubes [5] was “significantly reduced H2O2 effects”. In assay [1], the “DPPH free radical scavenging activity” value is “low”. In addition, the “inhibitory activity against Walker carcinosarcoma 256 in rats” value in assay [6] is recorded as “inhibitory activity”. The “HIV-1 protease inhibitory activity” value on HIV-1 protease is on record as “low HIV-1 protease”. The “Antitermitic activity (antifeedant effect)” value in the assay on termites is listed as “Antitermitic activity”. Also, in the assay on fungi, the antifungal activity result is recorded as “Antifungal effects”. In addition, the “protein phosphatase 2C inhibitor” value in the assay on protein phosphatase 2C is reported as 2C inhibitor,. Also, the anti-leishmanial activity entry with Leishmania is “anti-leishmanial,; also recorded: anti-leishmanial”. For the same molecule, the anti-plasmodial activity entry in the assay on Plasmodium is given as “anti-plasmodial”. Also, the antimicrobial activity entry in the assay with microbes is on record as “antimicrobial”. Moreover, in the assay with protozoa, the antiprotozoal activity result is given as “weak antiprotozoal”. Besides, the antibacterial activity result in the assay on bacteria is recorded as “antibacterial”. Further, the acetylcholinesterase inhibition result on acetylcholinesterase was “inhibition”. In addition, in assay [7], the “activity in O2 assay” value was “not active in O2 assay”. In assay [8], the “anti-proliferative activity in MOLT-4, HT-29, and MCF-7 cells” value is listed as “anti-proliferative”. In addition, the anti-proliferative activity result in the assay with colon cancer cells is listed as “anti-proliferative”.

(Values after US20210268056A1, “TAXODIONE FOR ITS USE FOR PROTECTING MUSCLE AND MEAT FROM OXIDATION” (CENTRE NATIONAL DE LA RECHERCHE SCIENTIFIQUE, priority 2018, published 2021).)
